The text below walks through data of patent publication US20220339261A1, “ORAL PHARMACEUTICAL COMPOSITION INCLUDING TERIPARATIDE AND METHOD FOR PREPARING SAME” (ICURE BNP CO., LTD., priority 2019, published 2022).

The nature of data set [1]: Rat bioavailability / pharmacokinetics, plasma teriparatide by ELISA. The settings on record: for AUCinf / AUClast: mean ± SD (n = 4). Here is the method: After anesthesia by intraperitoneal injection of ketamine (45 mg/kg) and xylazine (5 mg/kg) to female Sprague-Dawley rats (200-250 g, 6-7 weeks old), the abdomen of the rat was cut to take out the small intestine, and Examples 1 and 4 and Comparative Examples 1 and 2 prepared above were dispersed in purified water, and then injected into a proximal jejunum in an amount corresponding to 100 μg/kg as teriparatide by 400 μL. In addition, in order to evaluate the relative bioavailability, 150 μL of teriparatide solution dissolved in physiological saline was subcutaneously injected at an amount corresponding to 20 μg/kg as teriparatide.
After drug administration, blood samples were collected 150 μL at regular time intervals and mixed with 3.8% aqueous sodium citrate solution of 50 μL. Thereafter, the blood sample was centrifuged for 15 minutes at 2,500×g, at 4° C., and plasma was collected and stored at −70° C. The teriparatide concentration in plasma was measured at a wavelength of 620 nm using the human PTH (1-34) ELISA kit (ALPCO Diagnostics, USA). The pharmacokinetic parameters are estimated through the non-compartment method using WinNonlin S Software (ver. 5.3; Pharsight Corporation, USA) and are shown in Table 6 and FIG. 1.
In general terms: An ELISA detects its analyte on a solid surface through an enzyme-linked reagent.

Data set [2] in a line: Parallel artificial membrane permeability assay (PAMPA), effective permeability of teriparatide. The data set is classed as in vitro ADME. The following applies: PBS pH 6.8, 200 μg/mL as teriparatide, room temperature, 5 hours, mean ± SD (n = 4). Here is the method:
Effective permeability (Pe) through the artificial intestinal membrane of Examples 1 and Comparative Examples 1 to 7 prepared above was evaluated using the parallel artificial membrane permeability assay (PAMPA), which is an artificial intestinal membrane permeability evaluation system. First, the samples of Example 1 and Comparative Examples 1 to 7 were dissolved in phosphate buffer (PBS, pH 6.8) to a concentration of 200 μg/mL as teriparatide, and then 200 μL each was added to the donor part of the PAMPA system, and 300 μL of phosphate buffer (PBS, pH 6.8) was filled in the receiving part of the PAMPA system. […] Then, the solution of each well of the receiving part and the donor part was filtered through a membrane filter having a pore diameter of 0.45 μm, and then the concentration of teriparatide permeated through the artificial intestinal membrane was analyzed using the HPLC system under the following conditions.
50 μL of each sample was injected into the HPLC system, and acetonitrile (B) containing 0.1% (w/v) trifluoroacetic acid (TFA) aqueous solution (A) and 0.1% (w/v) TFA as mobile phases were separated by linearly changing the composition of mobile phase B from 51% to 76% for 25 minutes at a flow rate of 1.0 mL/min. Teriparatide was measured at 220 nm, and the effective transmittance (Pe) through the artificial intestinal membrane was calculated by Formula 1 below. […]
(In general: The PAMPA barrier holds no transporters, so it reflects passive diffusion.)

A short description of data set [3]: Apparent permeability through Caco-2 cell monolayer (Transwell). Type of data set: in vitro ADME. The settings on record: Caco-2 monolayer, 200 μM as teriparatide in HBSS, 37° C., up to 5 hours; mean ± SD (n = 4); read-out: Apparent transmittance (Papp). The method, then:
The apparent permeability of the complexes prepared as in Example 1 and Comparative Examples 1 to 7 to the intestinal cell membrane, Caco-2 cell membrane, was evaluated as follows. After Caco-2 cells were treated at a concentration of 1×10^5 cells/mL in 24-well Transwell, respectively, and after culturing the cells for 14 to 16 days, a cell monolayer of the electrical resistance (TEER) value through the Caco-2 cell membrane was >350 Ω·cm^2 was used for the experiment. First, the medium was removed from the Transwell, and then the donor part and receiving part were filled with HBSS and cultured at 37° C. for 20 minutes, then the TEER value was measured again, and then HBSS was removed. […] At 0.5, 1, 2, 3, 4, and 5 hours, 100 μL samples were collected from the receiving part, filtered using a membrane filter (pore 0.45 μm, PVDF), and the concentration of teriparatide permeated through the intestinal cell membrane was analyzed by HPLC under the conditions mentioned in Experimental Example 1. Apparent intestinal cell membrane permeability (Papp) was calculated using Formula 2 below, and the results are shown in Table 3. […]
A general note: Caco-2 monolayers are a common model of the intestinal barrier.

Where [4] appears, read: female, Sprague-Dawley, plasma, sc, 0.02 mg/kg.
Where [5] appears, read: subcutaneous injection, 0.02 mg/kg as teriparatide.
The mark [6] stands for this setting: dosing in jejunum, 0.1 mg/kg as teriparatide.

As to `CC[C@H](C)[C@H](NC(=O)[C@H](CCC(=O)O)NC(=O)[C@H](CO)NC(=O)[C@@H](NC(=O)[C@@H](N)CO)C(C)C)C(=O)N[C@@H](CCC(N)=O)C(=O)N[C@@H](CC(C)C)C(=O)N[C@@H](CCSC)C(=O)N[C@@H](Cc1cnc[nH]1)C(=O)N[C@@H](CC(N)=O)C(=O)N[C@@H](CC(C)C)C(=O)NCC(=O)N[C@@H](CCCCN)C(=O)N[C@@H](Cc1cnc[nH]1)C(=O)N[C@@H](CC(C)C)C(=O)N[C@@H](CC(N)=O)C(=O)N[C@@H](CO)C(=O)N[C@@H](CCSC)C(=O)N[C@@H](CCC(=O)O)C(=O)N[C@@H](CCCN=C(N)N)C(=O)N[C@H](C(=O)N[C@@H](CCC(=O)O)C(=O)N[C@@H](Cc1c[nH]c2ccccc12)C(=O)N[C@@H](CC(C)C)C(=O)N[C@@H](CCCN=C(N)N)C(=O)N[C@@H](CCCCN)C(=O)N[C@@H](CCCCN)C(=O)N[C@@H](CC(C)C)C(=O)N[C@@H](CCC(N)=O)C(=O)N[C@@H](CC(=O)O)C(=O)N[C@H](C(=O)N[C@@H](Cc1cnc[nH]1)C(=O)N[C@@H](CC(N)=O)C(=O)N[C@@H](Cc1ccccc1)C(=O)O)C(C)C)C(C)C` [Teriparatide], in data set [1] (setting [4]), the Cmax came to 0.805 ± 0.209 ng/mL, the Tmax was 15 min and the bioavailability turned out to be 100%. In data set [1] (setting [5]), the AUCinf was 0.765 ± 0.199 ng ·) sh/mL and the AUClast turned out to be 0.734 ± 0.191 ng ·) sh/mL.

As to `CC[C@H](C)[C@H](NC(=O)[C@H](CCC(=O)O)NC(=O)[C@H](CO)NC(=O)[C@@H](NC(=O)[C@@H](N)CO)C(C)C)C(=O)N[C@@H](CCC(N)=O)C(=O)N[C@@H](CC(C)C)C(=O)N[C@@H](CCSC)C(=O)N[C@@H](Cc1cnc[nH]1)C(=O)N[C@@H](CC(N)=O)C(=O)N[C@@H](CC(C)C)C(=O)NCC(=O)N[C@@H](CCCCN)C(=O)N[C@@H](Cc1cnc[nH]1)C(=O)N[C@@H](CC(C)C)C(=O)N[C@@H](CC(N)=O)C(=O)N[C@@H](CO)C(=O)N[C@@H](CCSC)C(=O)N[C@@H](CCC(=O)O)C(=O)N[C@@H](CCCN=C(N)N)C(=O)N[C@H](C(=O)N[C@@H](CCC(=O)O)C(=O)N[C@@H](Cc1c[nH]c2ccccc12)C(=O)N[C@@H](CC(C)C)C(=O)N[C@@H](CCCN=C(N)N)C(=O)N[C@@H](CCCCN)C(=O)N[C@@H](CCCCN)C(=O)N[C@@H](CC(C)C)C(=O)N[C@@H](CCC(N)=O)C(=O)N[C@@H](CC(=O)O)C(=O)N[C@H](C(=O)N[C@@H](Cc1cnc[nH]1)C(=O)N[C@@H](CC(N)=O)C(=O)N[C@@H](Cc1ccccc1)C(=O)O)C(C)C)C(C)C` [compound 1], the “Effective transmittance (Pe)” value in data set [2] is listed as 0.582 ± 0.132 ×10^−6 cm/s. In addition, in data set [1] (0.1 mg/kg), the bioavailability was 0.81 ± 0.191%. In data set [1] (setting [6]), the AUCinf worked out at 0.031 ± 0.007 ng ·) sh/mL and the AUClast worked out at 0.030 ± 0.007 ng ·) sh/mL. In addition, in data set [1] (in vivo, 0.1 mg/kg), the AUC(0-t) was found to be 0.03 ± 0.007 ng·h/mL, the Cmax was 0.041 ± 0.01 ng/mL and the Tmax is 19.8 ± 8.4 min. Also, in data set [3], the Papp stood at 0.362 ± 0.045 ×10⁻⁶ cm/s.

Broadly, the Cmax is the maximum level reached in the sampled fluid or tissue. The term Tmax denotes the time from dosing to the highest level. As a reminder, the bioavailability is the share of a dose that reaches the circulation, judged against a reference dose that is usually intravenous. For orientation: AUC(0-t) means exposure summed from dosing to a finite time, without extrapolation to infinity. A low value points to low exposure. A word on the Papp: it is the rate of passage across a membrane or cell layer, normalised by area and donor concentration.
